According to BigSolDB 2.1:

c1ccc2oc(CSCc3nc4ccccc4o3)nc2c1
Conditions	solubility (mole fraction)
in chlorobenzene, 274.85 K	0.00424
in chlorobenzene, 278.15 K	0.00514
in chlorobenzene, 283.15 K	0.00684
in chlorobenzene, 287.95 K	0.00889
in chlorobenzene, 292.95 K	0.0119
in chlorobenzene, 298.35 K	0.0157
in chlorobenzene, 303.25 K	0.0205
in chlorobenzene, 308.15 K	0.0262
in chlorobenzene, 313.25 K	0.0341
in chlorobenzene, 318.05 K	0.0427
in ethanol, 274.15 K	0.00741
in ethanol, 278.15 K	0.00978
in ethanol, 283.15 K	0.014
in ethanol, 288.35 K	0.02
in ethanol, 291.15 K	0.0236
in ethanol, 293.15 K	0.0279
in ethanol, 295.55 K	0.0318
in ethanol, 298.15 K	0.0377
in ethanol, 300.25 K	0.0435
in ethanol, 302.95 K	0.052
in ethanol, 305.15 K	0.0578
in ethanol, 308.15 K	0.0704
in isopropanol, 278.15 K	0.00231
in isopropanol, 283.15 K	0.00333
in isopropanol, 289.15 K	0.00523
in isopropanol, 293.15 K	0.00703
in isopropanol, 298.15 K	0.0105
in isopropanol, 303.15 K	0.014
in isopropanol, 308.15 K	0.0194
in isopropanol, 313.15 K	0.0268
in isopropanol, 318.15 K	0.0372
in isopropanol, 323.15 K	0.051
in n-butanol, 278.35 K	0.00349
in n-butanol, 283.15 K	0.00494
in n-butanol, 288.15 K	0.00698
in n-butanol, 293.25 K	0.00986
in n-butanol, 298.15 K	0.0142
in n-butanol, 303.25 K	0.0199
in n-butanol, 308.15 K	0.0271
in n-butanol, 313.25 K	0.0372
in n-butanol, 318.15 K	0.0516
in n-butanol, 323.15 K	0.0679
in o-xylene, 273.35 K	0.000297
in o-xylene, 278.15 K	0.000431
in o-xylene, 283.15 K	0.00064
in o-xylene, 287.95 K	0.000899
in o-xylene, 293.05 K	0.00138
in o-xylene, 298.15 K	0.00203
in o-xylene, 303.15 K	0.00305
in o-xylene, 308.35 K	0.00443
in o-xylene, 313.15 K	0.00656
in o-xylene, 318.15 K	0.00904
in toluene, 274.15 K	0.000608
in toluene, 278.15 K	0.000971
in toluene, 283.15 K	0.00176
in toluene, 288.15 K	0.00306
in toluene, 293.15 K	0.00522
in toluene, 298.15 K	0.00861
in toluene, 303.15 K	0.0139
in toluene, 308.15 K	0.024
in toluene, 313.25 K	0.0292
in toluene, 318.15 K	0.0413
